The numbers were not newly measured in paper PMC9549396 (Proceedings of the National Academy of Sciences of the …, 2022), which cites them from elsewhere.

The IC50 is the point on the concentration scale where inhibition reaches its midpoint.

The target in this series is PI3KC2β (Homo sapiens, UniProt O00750). Put plainly: lipid kinase activity inhibition. It counts as biochemical.
Chain of PI3KC2β (O00750 whole entry): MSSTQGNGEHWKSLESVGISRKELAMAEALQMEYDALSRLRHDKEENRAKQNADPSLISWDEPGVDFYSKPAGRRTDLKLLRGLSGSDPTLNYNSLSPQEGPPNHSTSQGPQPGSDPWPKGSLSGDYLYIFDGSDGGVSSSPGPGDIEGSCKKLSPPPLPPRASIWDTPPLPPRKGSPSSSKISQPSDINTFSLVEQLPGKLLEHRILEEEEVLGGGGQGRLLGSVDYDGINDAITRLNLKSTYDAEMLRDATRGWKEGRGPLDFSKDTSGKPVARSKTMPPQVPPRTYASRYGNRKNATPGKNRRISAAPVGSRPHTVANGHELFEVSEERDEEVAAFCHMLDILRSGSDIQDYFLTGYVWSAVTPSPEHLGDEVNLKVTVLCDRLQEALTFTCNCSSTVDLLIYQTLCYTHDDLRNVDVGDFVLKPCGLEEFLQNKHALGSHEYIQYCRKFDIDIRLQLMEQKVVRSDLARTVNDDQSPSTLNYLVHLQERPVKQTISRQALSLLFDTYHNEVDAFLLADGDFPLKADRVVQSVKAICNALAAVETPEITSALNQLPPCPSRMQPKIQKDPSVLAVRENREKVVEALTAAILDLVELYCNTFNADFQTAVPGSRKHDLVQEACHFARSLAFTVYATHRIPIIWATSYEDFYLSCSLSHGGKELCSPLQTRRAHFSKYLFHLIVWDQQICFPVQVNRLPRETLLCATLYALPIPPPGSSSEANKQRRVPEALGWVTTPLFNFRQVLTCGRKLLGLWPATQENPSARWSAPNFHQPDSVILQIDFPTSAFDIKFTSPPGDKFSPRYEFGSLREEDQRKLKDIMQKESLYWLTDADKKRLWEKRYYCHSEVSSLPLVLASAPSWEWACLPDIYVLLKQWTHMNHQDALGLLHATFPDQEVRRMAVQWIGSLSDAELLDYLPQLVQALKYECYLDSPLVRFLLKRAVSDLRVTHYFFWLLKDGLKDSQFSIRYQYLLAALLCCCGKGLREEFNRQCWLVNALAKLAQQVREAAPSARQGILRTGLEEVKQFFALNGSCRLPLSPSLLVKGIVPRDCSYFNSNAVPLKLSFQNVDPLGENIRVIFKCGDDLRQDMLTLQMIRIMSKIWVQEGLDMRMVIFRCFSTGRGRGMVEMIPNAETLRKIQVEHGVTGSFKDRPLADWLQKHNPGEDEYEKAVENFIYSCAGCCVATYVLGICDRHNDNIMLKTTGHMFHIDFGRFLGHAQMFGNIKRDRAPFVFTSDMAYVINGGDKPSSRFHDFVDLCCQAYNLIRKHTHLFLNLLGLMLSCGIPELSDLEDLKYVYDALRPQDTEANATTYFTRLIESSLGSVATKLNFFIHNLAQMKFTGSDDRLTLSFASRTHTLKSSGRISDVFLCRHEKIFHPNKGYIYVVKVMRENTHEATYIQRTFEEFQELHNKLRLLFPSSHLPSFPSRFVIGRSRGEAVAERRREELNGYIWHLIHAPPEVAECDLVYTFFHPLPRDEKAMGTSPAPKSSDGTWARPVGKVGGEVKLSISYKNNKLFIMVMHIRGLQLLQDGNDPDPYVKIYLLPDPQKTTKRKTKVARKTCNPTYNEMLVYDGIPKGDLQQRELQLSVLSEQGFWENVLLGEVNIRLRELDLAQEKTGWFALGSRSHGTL

For PITCOIN2, the IC50 was 1500 nM.
